From US8946405B2, “Controlled release from solid supports” (Prolynx LLC, priority 2010, dated 2015)

Key:
[1] = Release of Nε-2,4-dinitrophenyl-L-lysine from DNP-Lys carbamates (β-elimination), HPLC; type: physicochemical; conditions: after 5 days at 37° C. and pH 7.4
Experimental: A series of linker scaffolds having a range of functional groups as potential pKa modulators (substituted aromatics, ketones, nitriles, sulfones) were designed, prepared and linked via carbamate bonds to Ne-2,4-dinitrophenyl-L-lysine (Ne-DNP-Lys) for evaluation of release rates. DNP-Lys was chosen as the released moiety as is water soluble and is a strong chromophore to permit HPLC-UV analysis.
The rates of release of Nε-2,4-dinitrophenyl-L-lysine from these compounds were determined at pH 7.4 or pH 8.3, 37° C., by HPLC analysis. Kinetic analyses of the release reactions were performed by HPLC (C18; linear MeOH/water+0.5% HOAc gradient) using a UV/vis monitor at 350 nm. The areas under the Lys(DNP) (“P”) and starting material (“S”) peaks were integrated to determine extent of reaction (“R”) as R=P/(S+P). Reaction rates were calculated from the slope the line obtained by linear regression analysis of a plot of ln(1-R) versus time.

[2] = Hydrolysis of carbamate in 50% human serum; type: in vitro ADME; conditions: after 1 week at 37° C.
Description: In general, compared to C—H, a) electron withdrawing groups at R^1 increase the rate; b) alkyl groups at R^5 increase the rate; and c) aryl moieties at R^5 decrease the rate.

O=C(N[C@@H](CCCCNc1ccc([N+](=O)[O-])cc1[N+](=O)[O-])C(=O)O)OCc1ccccc1 [O-benzyl-N—(Nε-2,4-dinitrophenyl-L-lysine)-carbamate]
cleavage (estimated detection limit) [1]: < 0.25%
release of Nε-2,4-dinitrophenyl-L-lysine [1]: no observable release
hydrolysis in 50% human serum [2]: no detectable hydrolysis
